US4704277A, “Methods of treating bone disorders” (Sloan-Kettering Institute for Cancer Research, priority 1985, dated 1987)

What was measured:
[1] = test system: bone; conditions: cited from earlier work
[2] = patients treated in clinical testing; cited from earlier work
[3] = test system: bone tissue; assay: Histological studies of bone tissue for cytotoxicity
Text: (§1) Cytotoxicity studies were undertaken to determine if gallium nitrate was cytotoxic to bone tissue. […] At this dose and time, a 20% decrease in ^3 H-thymidine incorporation into DNA was seen.

[4] = test system: bone calcium; conditions: humans; application Ser. No. 622,726; cited from earlier work
[5] = test system: bone turnover; assay: Bone turnover in patients with bone metastases on short term gallium nitrate infusion; format: in vivo, human (patients with bone metastases)
Description: (§2) These additional experiments were performed to permit evaluation of bone turnover in patients with bone metastases, in response to short term infusion of gallium nitrate.
Seventeen infusions were administered to fifteen patients, five of whom were hypercalcemic. Gallium nitrate was administered as a continuous infusion at daily doses ranging from […], over 5-7 days. Bone turnover was assessed by serial measurements of urinary levels of Ca^2+, hydroxyproline (OHP), and creatinine (Cr), as well as the serum levels of osteocalcin (BGP). […] Mean reduction was 70±18%. Eight patients with increased bone turnover (i.e., a urinary OHP/Cr ratio greater than 6.0), received eleven drug infusions. […] Mean reduction was 49±22%.

[6] = test system: bone hydroxyapatite; assay: Wide angle X-ray diffraction of powdered bone (hydroxyapatite crystal size/perfection, B002); format: in vivo, Sprague-Dawley rats; conditions: for BOO2 (002 line width at half maximum): gallium treated rats, n=11
Description: (§3) Young female (120 g) Sprague-Dawley rats received a course of injections with 0.5 or 5.0 mg gallium nitrate, every other day. The 0.5 mg concentration is approximately equivalent (on a weight/weight basis) to the dose used to treat patients with cancer-related hypercalcemia by Warrell, et. al., supra. The animals received 7 interperitoneal injections over a 9-14 day period. Control groups were injected with carrier only. […] To obtain bone samples the rats were anesthetized and then sacrificed. The long bones were removed and cleaned of all muscle and connective tissue. The metaphyseal (ends containing the growth plate) and diaphyseal (shaft) portions of the bones were separated using a dissecting microscope. The bone pieces were then split and cleaned of all visible marrow, frozen and lyophilized. The split, dried, marrow-free bone fragments were pulverized in a liquid nitrogen cooled colloid mill to produce bone powder. Aliquots of bone particles were used for: (a) ash weight determination, (b) measurement of Ga, Ca and P content and (c) X-ray diffraction analysis. A portion of one bone particle preparation was sieved to uniform size using an #325 stainless steel mesh. Approximately 50 mg of the sieved-particle bone was then dispersed in bromoform:toluene, density=2.0 g/cc (as measured with a pynconometer). The suspension was centrifuged in the cold at 100 x G for 15 minutes. The suspended particles, representing newly formed mineral bone, density <2.0 g/cc were removed, washed with acetone then dried. The pelleted particles, density >2.0 g/cc were similarly washed with acetone and dried. Both the light and heavy density fractions were analyzed for Ga and Ca content.
Aliquots of the powdered bone were subjected to wide angle x-ray diffraction using Cu K(alpha) radiation. Samples were rapidly scanned from 4° 2.phi. to 70° 2.phi. to detect the presence of phases other than hydroxyapatite. Triplicate slow scans from 24° to 28° 2.phi. were used to estimate hydroxyapatite crystal size and perfection based on the line-width measurements (B002) made at the half maximum point of the c-axis 002 reflection at 25.8° 2.phi.. […] As a consequence, crystals formed in the metaphyses of the treated animals were similar to those found in the more mature diaphyses.

[7] = Body weight in gallium nitrate injected rats (lack of toxicity); format: in vivo, Sprague-Dawley rats; conditions: 0.5 or 5.0 mg i.p. every other day, end of 14 day schedule
Description: as §3, with “The suspension was centrifuged in the cold at 100 x G for 15 minutes. The suspended particles, representing newly formed mineral bone, density <2.0 g/cc were removed, washed with acetone then dried. The pelleted particles, density >2.0 g/cc were similarly washed with acetone and dried.” left out

[8] = continuous infusion; Warrell 1983, Leyland-Jones 1983; cited from earlier work
[9] = test system: bone cell models; assay: Cytotoxicity in bone cell models; format: cell-based
Text: as §1

[10] = test system: total serum calcium; assay: Comparative effect of calcitonin and gallium nitrate on total serum calcium; format: in vivo; conditions: one patient; calcitonin many times over recommended dose; FIG. 1
Description: Comparative studies were performed as to the effect of Calcitonin on total serum calcium, compared to gallium nitrate in a patient with severe life-threatening hypercalcemia due to bone metastases.

[11] = test system: long bones (metaphyses and diaphyses); assay: Bone Ga, Ca, P content and ash weight of bone fragments from gallium-treated rats; format: in vivo, Sprague-Dawley rats; conditions: for bone calcium content vs nontreated: 7 injections of 5 mg over 14 days; for Ga content of bone: gallium treated rats, n=6, 20160 min
Description: as §3
Gallium content in bone was measured by flameless atomic absorption spectrophotometry. Inorganic phosphorus was measured spectrophotometrically.
In subsequent experiments, rats were given 7 injections with 5 mg gallium nitrate over 14 days. […] As expected, increased calcium content was measured in the heavier density fraction >2.0 g/cc (220±31 vs 132±42 ug Ca/mg bone) which contained the more mineralized and more mature hydroxyapatite crystalline material.

[12] = test system: bone resorption; assay: Inhibition of bone resorption by gallium nitrate; conditions: direct effect
Description: as §2

F [fluoride]
bone structure ([1]; Jowsey et al. 1968): highly abnormal (lamellar-type) bone structure which is less strong relative to normal bone

O=P(O)(O)C(Cl)(Cl)P(=O)(O)O [dichloromethylenediphosphonate]
leukemia [2]: increased development of leukemia

calcitonin
rate of bone resorption ([1]; parenteral): transient decrease in the rate of bone resorption
bone mineral content (densimetric) ([1]; repetitive injections, Gruber et al.): increase bone mineral content
duration of anti-resorptive effect ([1]; tachyphylaxis): short-lived

O=[N+]([O-])[O-].O=[N+]([O-])[O-].O=[N+]([O-])[O-].[Ga+3] [gallium nitrate]
cytotoxic effect at light microscopic level ([3]; histology): no evidence of cytotoxic effect
matrix or mineral components ([3]; stained sections): no alteration in matrix or mineral components
excessive loss of bone calcium [4]: effective in reducing excessive loss of bone calcium
urinary OHP/Cr ratio ([5]; 6 patients with bone turnover not elevated): no significant change
urinary OHP/Cr ratio ([5]; 8 patients with increased bone turnover (OHP/Cr > 6.0)): All patients showed a decrease in OHP/Cr
mean reduction of urinary OHP/Cr ratio ([5]; 8 patients with increased bone turnover (OHP/Cr > 6.0), 11 infusions): 49±22%
urinary 24 hour Ca2+ excretion ([5]; after each infusion in all 15 patients): markedly reduced after each infusion in all 15 patients
accelerated bone loss ([5]; cancer patients with bone metastases): reduces accelerated bone loss
mean reduction of urinary 24 hour Ca2+ excretion ([5]; continuous infusion 100-300 mg daily over 5-7 days, 15 patients): 70±18%
mineral phases detected ([6]; all samples, scan 4° to 70° 2.phi.): The only phase detected in all samples was hydroxyapatite
BOO2 (002 line width at half maximum) ([6]; diaphyses): 0.50 ± .03 degrees
B002 vs control ([6]; metaphyseal particles): differed significantly
BOO2 (002 line width at half maximum) ([6]; metaphyses): 0.50 ± .03 degrees
hydroxyapatite crystal size/perfection ([6]; metaphyses, region of more active bone mineralization): larger or more perfect crystals
body weights or weight gained, treated vs nontreated [7]: no differences
safety of administration [8]: safe and non-toxic
protein banding patterns on SDS-PAGE, treated vs untreated ([9]; 3H-amino acid labeled cell homogenates): no differences
cell numbers or viability ([9]; 48 hours, up to 25 uM): Little change in cell numbers or viability
action as consequence of cytotoxic effect on bone cells ([9]; conclusion): not a consequence of a cytotoxic effect on bone cells
reduction of elevated serum calcium vs calcitonin [10]: distinctly greater effect on reducing elevated serum calcium
mineral content (ash weights), treated vs control ([11]; 7 injections with 5 mg gallium nitrate over 14 days): not significantly different
site of greatest gallium uptake ([11]; bone fragments, different total doses): metaphyseal bone
bone calcium content vs nontreated ([11]; diaphyseal fragments): No differences in calcium content
Ga content of bone ([11]; diaphyses): 149 ± 30 ng/mg
gallium incorporation into bone ([11]; gallium:calcium ratio, different total doses): incorporated into bone in very low amounts
Ca content of density fraction ([11]; heavier density fraction >2.0 g/cc): 220±31 ug Ca/mg bone
Ga content of density fraction ([11]; heavier density fraction >2.0 g/cc (comparator of the 'vs.')): 2.9±0.4 ug Ga/mg Ca
Ga content of density fraction ([11]; lighter bone fraction, <2.0 g/cc (newly synthesized mineral)): 3.2±0.2 ug Ga/mg Ca
Ca content of density fraction ([11]; lighter fraction <2.0 g/cc (comparator of the 'vs')): 132±42 ug Ca/mg bone
Ga content of bone ([11]; metaphyses): 384 ± 69 ng/mg
bone calcium content vs nontreated ([11]; metaphyses): statistically significant increase in bone calcium content
bone resorption [12]: directly inhibits bone resorption

CC(O)(P(=O)(O)O)P(=O)(O)O [EHDP]
bone mineralization ([1]; Schenk et al. 1973): blocks normal bone mineralization and leads to formation of disordered and inadequately calcified bone (osteomalacia)
